Test results: US12606572B2, “Substituted heterocycles and uses thereof” (Kumquat Biosciences Inc., priority 2023, dated 2026)

Assays:
KRAS WT = target: T1, KRAS WT (Homo sapiens, UniProt P01116); test: HTRF assay, interaction of GST-tagged K-Ras with His-tagged hSOS1 (KRAS wildtype); type: biochemical; conditions: <500 nM, read-out: Inhibition of KRAS WT (IC50)
T1 construct: made in house; host or cells: E. coli BL21 (DE3)
Summary of the method: (§1)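 GST-K-Ras (G12S or WT) with anti-GST-Eu donor mixed with His-hSOS1 and anti-6His-XL665 acceptor in ~5 mM HEPES pH 7.4, 150 mM NaCl, 1 mM DTT, 0.05% BSA, 0.0025% Igepal. After ~10 min or longer, HTRF 665/620 nm ratio read.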

KRAS G12S = target: T2, KRAS G12S (Homo sapiens, UniProt P01116, G12S); test: HTRF assay, interaction of GST-tagged K-Ras with His-tagged hSOS1 (KRAS G12S); type: biochemical; conditions: <500 nM, read-out: Inhibition of KRAS G12S (IC50)
T2 construct: made in house; host or cells: E. coli BL21 (DE3)
T2 sequence (P01116 1-188 isoform P01116-2 G12S): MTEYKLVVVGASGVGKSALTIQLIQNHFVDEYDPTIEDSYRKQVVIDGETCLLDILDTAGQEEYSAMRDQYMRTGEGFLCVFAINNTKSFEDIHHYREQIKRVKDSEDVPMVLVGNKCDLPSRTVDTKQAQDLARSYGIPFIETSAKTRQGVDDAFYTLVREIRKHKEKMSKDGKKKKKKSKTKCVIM
Summary of the method: as §1

T1 sequence (P01116 1-188 isoform P01116-2): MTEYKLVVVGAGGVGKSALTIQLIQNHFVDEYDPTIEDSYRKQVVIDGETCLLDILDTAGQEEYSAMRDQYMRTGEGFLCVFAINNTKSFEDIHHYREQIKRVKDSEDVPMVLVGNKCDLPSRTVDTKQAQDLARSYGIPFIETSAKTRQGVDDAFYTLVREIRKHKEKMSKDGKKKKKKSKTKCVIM

IC50 (KRAS WT) [nM]	IC50 (KRAS G12S) [nM]	Structure (SMILES)
< 500	< 500	C[C@@H]1[C@H](N2CCCOc3c(Cl)c(-c4ccc(F)c5sc(N)c(C#N)c45)c(F)c4nc(OC[C@@]56CCCN5C[C@H](F)C6)nc2c34)CCN1C(=O)n1ccnc1 [Compound 481, 4-(4-((2R,3R)-1-(1H-imidazole-1-carbonyl)-2-methylpyrrolidin-3-yl)-9-chloro-11-fluoro-2-(((2R,7aS)-2-fluorotetrahydro-1H-pyrrolizin-7a(5H)-yl)methoxy)-4,5,6,7-tetrahydro-[1,5]oxazocino[4,3,2-de]quinazolin-10-yl)-2-amino-7-fluorobenzo[b]thiophene-3-carbonitrile]
< 500	< 500	Cc1cn(C(=O)N2CC[C@@H](N3CCCCc4nc(-c5cc(N)c(F)c(C)c5C(F)(F)F)c(F)c5nc(OC[C@@]67CCCN6C[C@H](F)C7)nc3c45)[C@H]2C)c(C)n1 [Compound 438, ((2R,3R)-3-(5-(5-amino-4-fluoro-3-methyl-2-(trifluoromethyl)phenyl)-4-fluoro-2-(((2R,7aS)-2-fluorotetrahydro-1H-pyrrolizin-7a(5H)-yl)methoxy)-7,8,9,10-tetrahydro-11H-1,3,6,11-tetraazacycloocta[de]naphthalen-11-yl)-2-methylpyrrolidin-1-yl)(2,4-dimethyl-1H-imidazol-1-yl)methanone]
< 500	< 500	CC#CC(=O)N1C[C@@H](CN2CCOc3c(Cl)c(-c4ccc(F)c5sc(N)c(C#N)c45)c(F)c4nc(OC[C@@]56CCCN5C[C@H](F)C6)nc2c34)[C@H]1C1(C)CC1 [Compound 484, 2-amino-4-(4-(((2S,3R)-1-(but-2-ynoyl)-2-(1-methylcyclopropyl)azetidin-3-yl)methyl)-8-chloro-10-fluoro-2-(((2R,7aS)-2-fluorotetrahydro-1H-pyrrolizin-7a(5H)-yl)methoxy)-5,6-dihydro-4H-[1,4]oxazepino [5,6,7-de]quinazolin-9-yl)-7-fluorobenzo[b]thiophene-3-carbonitrile]
< 500	< 500	C[C@@H]1[C@H](N2CCOc3c(Cl)c(-c4ccc(F)c5sc(N)c(C#N)c45)c(F)c4nc(OC[C@@]56CCCN5C[C@H](F)C6)nc2c34)CCN1C(=O)n1cnc(F)n1 (single isomer, unassigned) [Compound 426]
< 500	< 500	C[C@H](O)[C@H]1COc2c(Cl)c(-c3ccc(F)c4sc(N)c(C#N)c34)c(F)c3nc(OC[C@@]45CCCN4C[C@H](F)C5)nc(c23)N1C[C@H]1CN(C(=O)n2ccnc2)[C@@H]1C (single isomer, unassigned) [Compound 402]
< 500	< 500	Cc1c(C#N)ncn1C(=O)N1C[C@@H](CN2CCOc3c(Cl)c(-c4ccc(F)c5sc(N)c(C#N)c45)c(F)c4nc(OC[C@@]56CCCN5C[C@H](F)C6)nc2c34)[C@H]1C1(C)CC1 (single isomer, unassigned) [Compound 452]
< 500	< 500	CC(C)(C)[C@@H]1[C@H](CN2CCOc3c(Cl)c(-c4ccc(F)c5sc(N)c(C#N)c45)c(F)c4nc(OC[C@@]56CCCN5C[C@H](F)C6)nc2c34)CN1C(=O)n1cnc(F)n1 (single isomer, unassigned) [Compound 434]
< 500	< 500	COCC1([C@@H]2[C@H](CN3CCOc4c(Cl)c(-c5ccc(F)c6sc(N)c(C#N)c56)c(F)c5nc(OC[C@@]67CCCN6C[C@H](F)C7)nc3c45)CN2C(=O)n2cnc(C)c2)CC1 [Compound 477, 2-amino-4-(8-chloro-10-fluoro-2-(((2R,7aS)-2-fluorotetrahydro-1H-pyrrolizin-7a(5H)-yl)methoxy)-4-(((2S,3R)-2-(1-(methoxymethyl)cyclopropyl)-1-(4-methyl-1H-imidazole-1-carbonyl)azetidin-3-yl)methyl)-5,6-dihydro-4H-[1,4]oxazepino[5,6,7-de]quinazolin-9-yl)-7-fluorobenzo [b]thiophene-3-carbonitrile]
< 500	< 500	C[C@@H]1[C@H](N2C[C@H](C)Oc3c(Cl)c(-c4ccc(F)c5sc(N)c(C#N)c45)c(F)c4nc(OC[C@@]56CCCN5C[C@H](F)C6)nc2c34)CCN1C(=O)n1cnc(Cl)n1 (atropisomer, axis not shown; (aS)) [Compound 407, 2-amino-4-((6S,9R)-8-chloro-4-((2R,3R)-1-(3-chloro-1H-1,2,4-triazole-1-carbonyl)-2-methylpyrrolidin-3-yl)-10-fluoro-2-(((2R,7aS)-2-fluorotetrahydro-1H-pyrrolizin-7a (5H)-yl)methoxy)-6-methyl-5,6-dihydro-4H-[1,4]oxazepino[5,6,7-de]quinazolin-9-yl)-7-fluorobenzo[b]thiophene-3-carbonitrile]
< 500	< 500	N#Cc1c(N)sc2c(F)ccc(-c3c(Cl)c4c5c(nc(OC[C@@]67CCCN6C[C@H](F)C7)nc5c3F)N(CC3CN(C(=O)C5=CCCC5)C3)CCO4)c12 [Compound 462, 2-amino-4-(8-chloro-4-((1-(cyclopent-1-ene-1-carbonyl)azetidin-3-yl)methyl)-10-fluoro-2-(((2R,7aS)-2-fluorotetrahydro-1H-pyrrolizin-7a(5H)-yl)methoxy)-5,6-dihydro-4H-[1,4]oxazepino [5,6,7-de]quinazolin-9-yl)-7-fluorobenzo[b]thiophene-3-carbonitrile]
< 500	< 500	C[C@H](O)[C@H]1COc2c(Cl)c(-c3ccc(F)c4sc(N)c(C#N)c34)c(F)c3nc(OC[C@@]45CCCN4C[C@H](F)C5)nc(c23)N1C[C@@H]1CN(C(=O)n2ccnc2)[C@@H]1C (single isomer, unassigned) [Compound 446]
< 500	< 500	C/C(C#N)=C/C(=O)N1CC(CN2CCOc3c(Cl)c(-c4ccc(F)c5sc(N)c(C#N)c45)c(F)c4nc(OC[C@@]56CCCN5C[C@H](F)C6)nc2c34)C1 [Compound 459, 2-amino-4-(8-chloro-4-((1-((Z)-3-cyanobut-2-enoyl)azetidin-3-yl)methyl)-10-fluoro-2-(((2R, 7aS)-2-fluorotetrahydro-1H-pyrrolizin-7a(5H)-yl)methoxy)-5,6-dihydro-4H-[1,4]oxazepino[5,6,7-de]quinazolin-9-yl)-7-fluorobenzo [b]thiophene-3-carbonitrile]
< 500	< 500	N#Cc1c(N)sc2c(F)ccc(-c3c(Cl)c4c5c(nc(OC[C@@]67CCCN6C[C@H](F)C7)nc5c3F)N(CC3CN(C(=O)/C=C/C5COC5)C3)CCO4)c12 [Compound 475, 2-amino-4-(8-chloro-10-fluoro-2-(((2R,7aS)-2-fluorotetrahydro-1H-pyrrolizin-7a(5H)-yl)methoxy)-4-((1-((E)-3-(oxetan-3-yl)acryloyl)azetidin-3-yl)methyl)-5,6-dihydro-4H-[1,4]oxazepino[5,6,7-de]quinazolin-9-yl)-7-fluorobenzo[b] thiophene-3-carbonitrile]
< 500	< 500	Cc1cn(C(=O)N(C)[C@@H]2C[C@@H]3CCOc4c(Cl)c(-c5ccc(F)c6sc(N)c(C#N)c56)c(F)c5nc(OC[C@@]67CCCN6C[C@H](F)C7)nc(c45)N3C2)cn1 (single isomer, unassigned) [Compound 472]
